Where two headings read alike, the source gives them in different places. Bridge positions count the residues as written; N and C are the ends. Square brackets hold non-standard residues; d marks the D form. Peptide text beside a SMILES is read from it. Bta = N[C@@H](Cc1csc2ccccc12)C(=O)O; Pen = CC(C)(S)[C@H](N)C(=O)O; Nle = CCCC[C@H](N)C(=O)O; GABA = NCCCC(=O)O
Legend:
[1] = target: T1, hMC4-R (Homo sapiens, UniProt P32245); test: cyclic AMP bioassay (ECL) in CHO-K1 cells; format: cell-based
T1 construct: expressed in transfected cells; host or cells: CHO-K1
T1 sequence (P32245 whole entry): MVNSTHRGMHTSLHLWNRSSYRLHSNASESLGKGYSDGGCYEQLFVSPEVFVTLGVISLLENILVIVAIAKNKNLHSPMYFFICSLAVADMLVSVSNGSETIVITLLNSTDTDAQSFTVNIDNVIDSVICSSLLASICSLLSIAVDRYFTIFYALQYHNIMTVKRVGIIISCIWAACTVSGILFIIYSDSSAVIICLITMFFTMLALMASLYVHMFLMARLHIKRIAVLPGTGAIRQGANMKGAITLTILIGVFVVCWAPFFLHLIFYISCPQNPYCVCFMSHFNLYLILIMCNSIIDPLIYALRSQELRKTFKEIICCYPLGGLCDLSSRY

[2] = target: T2, hMC5-R (Homo sapiens, UniProt P33032); test: cyclic AMP bioassay (ECL) in CHO-K1 cells; format: cell-based
T2 construct: expressed in transfected cells; host or cells: CHO-K1
T2 sequence (P33032 whole entry): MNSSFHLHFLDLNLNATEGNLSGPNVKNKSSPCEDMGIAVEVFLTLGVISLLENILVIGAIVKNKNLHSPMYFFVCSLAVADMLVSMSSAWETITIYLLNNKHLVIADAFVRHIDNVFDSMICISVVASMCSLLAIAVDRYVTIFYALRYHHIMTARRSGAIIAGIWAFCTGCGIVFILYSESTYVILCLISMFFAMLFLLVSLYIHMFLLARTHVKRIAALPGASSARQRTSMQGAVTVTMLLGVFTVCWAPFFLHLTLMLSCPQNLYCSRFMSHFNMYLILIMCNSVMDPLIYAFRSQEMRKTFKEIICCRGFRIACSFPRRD

[3] = target: T2, hMC5-R; test: Radioligand binding assay, [125I]-NDP-α-MSH competition, CHO-K1 membranes
Procedure: Cellular membranes used for the in vitro receptor binding assays were obtained from transgenic CHO-K1 cells stably expressing hMC-R receptor subtypes 1, 3, 4 or 5. […] The pellets were resuspended in the same buffer and centrifuged at 50,000 g for 10 minutes at approximately 4° C. The washed pellets containing the cellular membranes were stored at approximately −80° C.
Cell membranes (1-10 μg protein/well) prepared as described above were incubated in 50 mM Tris-HCl at pH 7.4 containing 0.2% bovine serum albumin (BSA), 5 mM MgCl2, 1 mM CaCl2 and 0.1 mg/mL bacitracin, with increasing concentrations of the test compound and 0.1-0.3 nM [^25I]-NDP-α-MSH for approximately 90-120 minutes at approximately 37° C. […] Filters were washed three times with 50 mM Tris-HCl at pH 7.4 at a temperature of approximately 0-4° C. and then assayed for radioactivity using a Packard Topcount® scintillation counter. Binding data were analyzed by computer-assisted non-linear regression analysis (XL fit; IDBS).

[4] = target: T3, hMC3-R (Homo sapiens, UniProt P41968); test: cyclic AMP bioassay (ECL) in CHO-K1 cells; format: cell-based
T3 construct: expressed in transfected cells; host or cells: CHO-K1
T3 sequence (P41968 whole entry): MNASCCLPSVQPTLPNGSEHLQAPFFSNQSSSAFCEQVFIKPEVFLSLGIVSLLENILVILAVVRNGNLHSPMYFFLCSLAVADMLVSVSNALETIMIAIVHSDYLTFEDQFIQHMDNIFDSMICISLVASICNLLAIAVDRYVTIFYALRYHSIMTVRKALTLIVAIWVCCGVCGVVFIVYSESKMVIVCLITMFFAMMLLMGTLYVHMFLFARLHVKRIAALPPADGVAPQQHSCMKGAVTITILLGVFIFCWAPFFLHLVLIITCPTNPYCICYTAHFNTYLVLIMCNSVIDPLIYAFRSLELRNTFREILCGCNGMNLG
Procedure: (§1) Intracellular cyclic AMP (cAMP) levels were determined by an electrochemiluminescence (ECL) assay (Meso Scale Discovery®, Gaithersburg, Md.; referred to hereinafter as MSD). […] Transgenic CHO-K1 cells stably expressing hMC receptor subtypes 1, 3, 4 or 5 were dispensed at a density of approximately 7,000 cells/well in 384-well Multi-Array®plates (MSD) containing integrated carbon electrodes and coated with anti-cAMP antibody. Increasing concentrations of the test compounds were added and the cells were incubated for approximately 40 minutes at approximately 37° C. […] At the end of the second incubation period read buffer (Tris-buffered solution containing an ECL co-reactant and Triton X-100 at ph 7.8) was added and the cAMP levels in the cell lysates were immediately determined by ECL detection with a Sector Imager 6000 Reader® (MSD). Data were analyzed using a computer-assisted non-linear regression analysis (XL fit; IDBS) and reported as either an EC50 value or a Kb value.
(§2) The Kb value reflects the potency of an antagonist and is determined by Schild analysis. In brief, concentration-response curves of an agonist are carried out in the presence of increasing concentrations of an antagonist. […] It is calculated by extrapolating the line on a Schild plot to zero on the y-axis.

[5] = target: T4, hMC1-R (Homo sapiens, UniProt Q01726); test: cyclic AMP bioassay (ECL) in CHO-K1 cells; format: cell-based
T4 construct: expressed in transfected cells; host or cells: CHO-K1
T4 sequence (Q01726 whole entry): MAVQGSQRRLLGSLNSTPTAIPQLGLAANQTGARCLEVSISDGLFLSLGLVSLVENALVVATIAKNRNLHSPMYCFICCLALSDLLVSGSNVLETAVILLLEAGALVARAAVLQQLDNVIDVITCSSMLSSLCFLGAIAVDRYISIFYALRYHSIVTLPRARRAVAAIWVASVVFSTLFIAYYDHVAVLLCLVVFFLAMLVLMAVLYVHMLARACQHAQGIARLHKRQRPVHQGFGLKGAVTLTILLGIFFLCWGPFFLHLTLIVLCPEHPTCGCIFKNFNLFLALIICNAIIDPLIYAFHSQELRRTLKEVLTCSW
Procedure: as §1, §2

[6] = Table 9A/9B, read-out: EC50 hMC4-R
[7] = Table 9A/9B, read-out: EC50 hMC5-R
[8] = Table 9A/9B, read-out: EC50 hMC3-R
[9] = Table 9A/9B, read-out: EC50 hMC1-R
[10] = antagonist potency by Schild analysis, cAMP, CHO-K1 cells expressing hMC4-R, read-out: Kb hMC4-R
[11] = cAMP, CHO-K1 cells expressing hMC5-R, read-out: EC50 hMC5-R
[12] = antagonist potency by Schild analysis, cAMP, CHO-K1 cells expressing hMC3-R, read-out: Kb hMC3-R
[13] = cAMP, CHO-K1 cells expressing hMC1-R, read-out: EC50 hMC1-R

Compound | EC50 [1, 6] | EC50 [2, 7] | EC50 [4, 8] | EC50 [5, 9] | EC50 [2] | also measured
CC(=O)N[C@@H](CCCNC(=N)N)C(=O)N[C@H]1CC(=O)NCCCC[C@@H](C(N)=O)NC(=O)[C@H](C)NC(=O)[C@H](Cc2c[nH]c3ccccc23)NC(=O)[C@H](CCCNC(=N)N)NC(=O)[C@@H](Cc2ccccc2)NC(=O)[C@H](Cc2c[nH]cn2)NC1=O [Ac-Arg-c(Asp-His-D-Phe-Arg-Trp-Ala-Lys)-NH2] | 0.055 nM | 467 nM | 2.89 nM | 1.39 nM |  | Ki ([3]; Table 5, read-out: Ki hMC5-R): 783 nM
CC(=O)N[C@H]1CSSC[C@@H](C(=O)N2CCC[C@H]2C(=O)N2CCC[C@H]2C(=O)N[C@@H](CCCCN)C(=O)N[C@@H](CC(=O)O)C(=O)NCCC(=O)N[C@@H](Cc2ccc(O)cc2)C(=O)NCC(=O)N[C@@H](CCCNC(=N)N)C(=O)N[C@@H](CCCCN)C(=O)N[C@@H](CCCCN)C(=O)N[C@@H](CCCNC(=N)N)C(=O)N[C@@H](CCCNC(=N)N)C(=O)N[C@@H](CCC(N)=O)C(=O)N[C@@H](CCCNC(=N)N)C(=O)N[C@@H](CCCNC(=N)N)C(=O)N[C@@H](CCCNC(=N)N)C(N)=O)NC(=O)[C@H](C)NC(=O)[C@H](Cc2csc3ccccc23)NC(=O)[C@H](CCCNC(=N)N)NC(=O)[C@@H](Cc2ccc3ccccc3c2)NC(=O)[C@H](Cc2c[nH]cn2)NC(=O)[C@H](CCC(=O)O)NC1=O |  |  |  |  |  | Kb [1, 10]: 41.1 nM; EC50 [2, 11]: 1800 nM; Ki ([3]; Table 6, read-out: Ki hMC5-R): 15.3 nM; Kb [4, 12]: 112 nM; EC50 [5, 13]: 37.9 nM
CC(=O)N[C@H]1CSSC[C@@H](C(N)=O)NC(=O)[C@H](C)NC(=O)[C@H](Cc2c[nH]c3ccccc23)NC(=O)[C@H](CCCNC(=N)N)NC(=O)[C@@H](Cc2ccccc2)NC(=O)[C@H](Cc2c[nH]cn2)NC(=O)[C@@H](C)NC1=O [Ac-c(Cys-D-Ala-His-D-Phe-Arg-Trp-Ala-Cys)-NH2] (Ac-C[dA]H[dF]RWAC-NH2; disulfide 1-8 (inferred)) |  |  |  |  |  | Ki ([3]; Table 5, read-out: Ki hMC5-R): > 10000 nM
CC(=O)N[C@H](CCCNC(=N)N)C(=O)N[C@H]1CSSC[C@@H](C(N)=O)NC(=O)[C@H](Cc2c[nH]c3ccccc23)NC(=O)[C@H](CCCNC(=N)N)NC(=O)[C@@H](Cc2ccccc2)NC(=O)[C@H](Cc2c[nH]cn2)NC(=O)[C@@H](C)NC1=O [Ac-D-Arg-c(Cys-D-Ala-His-D-Phe-Arg-Trp-Cys)-NH2] |  |  |  |  | 1020 nM | Ki ([3]; Ki hMC5-R, Table 5): 352 nM
CCCC[C@H](NC(C)=O)C(=O)N[C@H]1CSSC(C)(C)[C@@H](C(N)=O)NC(=O)CCCNC(=O)[C@H](Cc2c[nH]c3ccccc23)NC(=O)[C@H](CCCNC(=N)N)NC(=O)[C@@H](Cc2ccccc2)NC(=O)[C@H](Cc2c[nH]cn2)NC1=O [Ac-Nle-c(Cys-His-D-Phe-Arg-Trp-Gaba-Pen)-NH2] (Ac-[Nle]CH[dF]RW[GABA][Pen]-NH2; disulfide 2-8) | 0.028 nM | 3.9 nM | 0.24 nM | 0.28 nM |  | 
CCCC[C@@H]1NC(=O)N(CC(=O)N[C@H]2CSSC(C)(C)[C@@H](C(N)=O)NC(=O)[C@H](Cc3c[nH]c4ccccc34)NC(=O)[C@H](CCCNC(=N)N)NC(=O)[C@@H](Cc3ccccc3)NC(=O)[C@H](Cc3cnc[nH]3)NC(=O)[C@@H](C)NC2=O)C1=O [Hydantoin(C(O)-(Nle-Gly))-c(Cys-D-Ala-His-D-Phe-Arg-Trp-Pen)-NH2] |  |  |  |  | 352 nM | EC50 [1]: 0.584 nM; EC50 [4]: 21.5 nM; EC50 [5]: 17 nM
CCCC[C@H](NC(C)=O)C(=O)N[C@H]1CC(=O)NCCCC[C@@H](C(N)=O)NC(=O)[C@H](Cc2csc3ccccc23)NC(=O)[C@H](CCCNC(=N)N)NC(=O)[C@@H](Cc2ccccc2)NC(=O)[C@H](Cc2c[nH]cn2)NC(=O)[C@@H](C)NC1=O [Ac-Nle-c(Asp-D-Ala-His-D-Phe-Arg-Bal-Lys)-NH2] (Ac-[Nle]D[dA]H[dF]R[Bta]K-NH2; lactam 2-8) | 1.65 nM | > 10000 nM | 3.22 nM | 0.931 nM |  | 
CC(=O)N[C@@H](CCCNC(=N)N)C(=O)N[C@H]1CSSC[C@@H](C(N)=O)NC(=O)[C@H](Cc2c[nH]c3ccccc23)NC(=O)[C@H](CCCNC(=N)N)NC(=O)[C@@H](Cc2ccc3ccccc3c2)NC(=O)[C@H](Cc2c[nH]cn2)NC(=O)[C@@H](C)NC1=O [Ac-Arg-c(Cys-D-Ala-His-D-2-Nal-Arg-Trp-Cys)-NH2] |  |  |  |  | 1110 nM | Kb [1]: 1.58 nM; Kb [4]: 5.72 nM; EC50 [5]: 193 nM
CCCC[C@H](NC(C)=O)C(=O)N[C@H]1CC(=O)NCCCC[C@@H](C(N)=O)NC(=O)CCNC(=O)[C@H](Cc2c[nH]c3ccccc23)NC(=O)[C@H](CCCNC(=N)N)NC(=O)[C@@H](Cc2ccccc2)NC(=O)[C@H](Cc2c[nH]cn2)NC1=O [Ac-Nle-c(Asp-His-D-Phe-Arg-Trp-β-Ala-Lys)-NH2] | 0.128 nM | 2.79 nM | 0.145 nM | 0.834 nM |  | 
CC(=O)N[C@H]1CSSC[C@@H](C(=O)N2CCC[C@H]2C(=O)N2CCC[C@H]2C(=O)N[C@@H](CCCCN)C(=O)N[C@@H](CC(=O)O)C(=O)NCCC(=O)N[C@@H](Cc2ccc(O)cc2)C(=O)NC(C)(C)C(=O)N[C@@H](CCCNC(=N)N)C(=O)N[C@@H](CCCCN)C(=O)N[C@@H](CCCCN)C(=O)N[C@@H](CCCNC(=N)N)C(=O)N[C@@H](CCCNC(=N)N)C(=O)N[C@@H](CCC(N)=O)C(=O)N[C@@H](CCCNC(=N)N)C(=O)N[C@@H](CCCNC(=N)N)C(=O)N[C@@H](CCCNC(=N)N)C(N)=O)NC(=O)[C@H](C)NC(=O)[C@H](Cc2csc3ccccc23)NC(=O)[C@H](CCCNC(=N)N)NC(=O)[C@@H](Cc2ccc3ccccc3c2)NC(=O)[C@H](Cc2c[nH]cn2)NC(=O)[C@H](CCC(=O)O)NC1=O |  |  |  |  |  | Kb [1, 10]: 46.5 nM; EC50 [2, 11]: 582 nM; Kb [4, 12]: 439 nM; EC50 [5, 13]: 67.1 nM
CCCC[C@H](NC(C)=O)C(=O)N[C@H]1CSSC[C@@H](C(N)=O)NC(=O)[C@H](Cc2c[nH]c3ccccc23)NC(=O)[C@H](CCCNC(=N)N)NC(=O)[C@@H](Cc2ccccc2)NC(=O)[C@H](Cc2c[nH]cn2)NC(=O)[C@@H](CC(C)C)NC1=O [Ac-Nle-c(Cys-D-Leu-His-D-Phe-Arg-Trp-Cys)-NH2] | 0.0915 nM | 78.5 nM | 0.465 nM | 3.24 nM |  | 
CC(=O)N[C@@H](CCC1CCCCC1)C(=O)N[C@H]1CC(=O)NCCCC[C@@H](C(N)=O)NC(=O)CCCNC(=O)[C@H](Cc2c[nH]c3ccccc23)NC(=O)[C@H](CCCNC(=N)N)NC(=O)[C@@H](Cc2ccccc2)NC(=O)[C@H](Cc2c[nH]cn2)NC1=O [Ac-hCha-c(Asp-His-D-Phe-Arg-Trp-Gaba-Lys)-NH2] | 7.24 nM | 415 nM | 3.32 nM | 2.27 nM |  | 
CC(=O)N[C@H]1CSSC[C@@H](C(=O)N2CCC[C@H]2C(=O)N2CCC[C@H]2C(=O)N[C@@H](CCCCN)C(=O)N[C@@H](CC(=O)O)C(=O)NCCC(=O)N[C@@H](CCCNC(=N)N)C(=O)N[C@@H](CCCNC(=N)N)C(=O)N[C@@H](CCCNC(=N)N)C(=O)N[C@@H](CCCNC(=N)N)C(=O)N[C@@H](CCCNC(=N)N)C(=O)N[C@@H](CCC(N)=O)C(=O)N[C@@H](CCCNC(=N)N)C(=O)N[C@@H](CCCNC(=N)N)C(=O)N[C@@H](CCCNC(=N)N)C(N)=O)NC(=O)[C@H](C)NC(=O)[C@H](Cc2csc3ccccc23)NC(=O)[C@H](CCCNC(=N)N)NC(=O)[C@@H](Cc2ccc3ccccc3c2)NC(=O)[C@H](Cc2c[nH]cn2)NC(=O)[C@H](CCC(=O)O)NC1=O |  |  |  |  | 328 nM | Kb [1]: 6.14 nM; Kb [4]: 170 nM; EC50 [5]: 52 nM
CC(=O)N[C@H]1CSSC[C@@H](C(=O)N2CCC[C@H]2C(=O)N2CCC[C@H]2C(=O)N[C@@H](CCCCN)C(=O)N[C@@H](CC(=O)O)C(=O)NCCC(=O)NCC(=O)N[C@@H](CCCNC(=N)N)C(=O)N[C@@H](CCCNC(=N)N)C(=O)N[C@@H](CCCCN)C(=O)N[C@@H](CCCNC(=N)N)C(=O)N[C@@H](CCCNC(=N)N)C(=O)N[C@@H](CCC(N)=O)C(=O)N[C@@H](CCCNC(=N)N)C(=O)N[C@@H](CCCNC(=N)N)C(=O)N[C@@H](CCCNC(=N)N)C(N)=O)NC(=O)[C@H](C)NC(=O)[C@H](Cc2csc3ccccc23)NC(=O)[C@H](CCCNC(=N)N)NC(=O)[C@@H](Cc2ccc3ccccc3c2)NC(=O)[C@H](Cc2c[nH]cn2)NC(=O)[C@H](CCC(=O)O)NC1=O |  |  |  |  | 89.5 nM | Kb [1]: 4.42 nM; Kb [4]: 93.6 nM; EC50 [5]: 33.8 nM
